{"source": "paper PMC8149581", "about": "(Chemistry of Heterocyclic Compounds, 2021)", "key": {"[1]": {"system": "influenza A/Puerto Rico/8/34 (H1N1) virus", "type": "cell-based"}, "[2]": {"test": "in vitro", "conditions": "dog"}, "[3]": {"test": "Simultaneous thermal analysis", "type": "physicochemical"}}, "note": "Read-outs that look alike come from different tables or passages of the source.", "data": [{"smiles": "Nc1c(Br)cc([N+](=O)[O-])cc1-c1nnn(C23CC4CC(CC(C4)C2)C3)n1", "note": "[Compound 3h, 2-[2-(Adamantan-1-yl)-2 H -tetrazol-5-yl]-6-bromo-4-nitroaniline]", "values": [{"measurement": "Selectivity index (SI)", "setting": "[1]", "value": 11}]}, {"smiles": "CC(N)C12CC3CC(CC(C3)C1)C2", "note": "(stereo not drawn) [Rimantadine, reference compound]", "values": [{"measurement": "CC50", "setting": "[2]", "value": "60 ± 4", "unit": "µg/mL"}, {"measurement": "Selectivity index (SI)", "setting": "[1]", "value": 5}]}, {"smiles": "O=[N+]([O-])c1cc(-c2nnn(C34CC5CC(CC(C5)C3)C4)n2)ccc1O", "note": "[Compound 3g, 4-[(2-Adamantan-1-yl)-2 H -tetrazol-5-yl]-2-nitrophenol]", "values": [{"measurement": "Temperature from which complete decomposition occurs", "setting": "[3]; argon flow, heating rate 10°C/min", "value": "≥ 250", "unit": "°C"}, {"measurement": "Temperature of release of molecular nitrogen (loss of weight)", "setting": "[3]; argon flow, heating rate 10°C/min, strong exothermic effect", "value": 156.2, "unit": "°C"}, {"measurement": "Loss of mass at complete decomposition", "setting": "[3]; starting with 250°C", "value": 33.6, "unit": "%"}]}, {"smiles": "Clc1ccc(-c2nnn(C34CC5CC(CC(C5)C3)C4)n2)cc1", "note": "[Compound 3d, 2-(Adamantan-1-yl)-5-(4-chlorophenyl)-2 H -tetrazole]", "values": [{"measurement": "Selectivity index (SI)", "setting": "[1]", "value": 2}]}, {"smiles": "Ic1ccc(-c2nnn(C34CC5CC(CC(C5)C3)C4)n2)cc1", "note": "[Compound 3a, 2-(Adamantan-1-yl)-5-(4-iodophenyl)-2 H -tetrazole]", "values": [{"measurement": "Selectivity index (SI)", "setting": "[1]; ratio of CC50 to IC50", "value": 1}]}, {"smiles": "Nc1cc(-c2nnn(C34CC5CC(CC(C5)C3)C4)n2)ccc1O", "note": "[Compound 3i, 4-[2-(Adamantan-1-yl)-2 H -tetrazol-5-yl]-2-aminophenol]", "values": [{"measurement": "Selectivity index (SI)", "setting": "[1]", "value": 2}]}]}
